From article PMC9544596 (Journal of Clinical Pharmacology, 2022)

Legend:
Enterococcus spp. = experiment: Vancomycin MIC of cultured clinical isolates; type: cell-based
[1] = Population pharmacokinetic model of vancomycin

CN[C@H](CC(C)C)C(=O)N[C@H]1C(=O)N[C@@H](CC(N)=O)C(=O)N[C@H]2C(=O)N[C@H]3C(=O)N[C@H](C(=O)N[C@H](C(=O)O)c4cc(O)cc(O)c4-c4cc3ccc4O)[C@H](O)c3ccc(c(Cl)c3)Oc3cc2cc(c3O[C@@H]2O[C@H](CO)[C@@H](O)[C@H](O)[C@H]2O[C@H]2C[C@](C)(N)[C@H](O)[C@H](C)O2)Oc2ccc(cc2Cl)[C@H]1O [vancomycin]
MIC50 (Enterococcus spp.; Enterococcus, read-out: MIC50 (min-max)): 1 µg/mL
MIC50 (min-max) (Enterococcus spp.; patients without shock, 6 isolates): 1 µg/mL
MIC50 (min-max) (Enterococcus spp.; septic shock patients, 5 isolates): 1 µg/mL
CL, bootstrap of final model estimate ([1]; 1000 bootstrap replicates): 1.23 L/h
Vd, bootstrap of final model estimate ([1]; 1000 bootstrap replicates): 66.51 L
θ1, bootstrap of final model estimate ([1]; 1000 bootstrap replicates): 1.00
Vd, final model estimate ([1]; Thai GFR not indexed to BSA final model): 67.46 L
